Source: patent US10253052B2, “HBED-bisphosphonates, radiometal conjugates and their use as theranostic agents” (Five Eleven Pharma Inc., priority 2015, dated 2019)

How the values were obtained:
[1] = In vivo biodistribution in mice; set-up: species or system normal CD-1 male mice; conditions: iv
Experimental: Biodistribution experiments were performed by intravenously administering ^68Ga labeled 1a-h, 2, 3, BPAMD, and [^18F]NaF into normal, healthy male CD-1 mice (25-30 g). The injection activity was 20-30 μCi/animal. […] Organs of interest were harvested, weighed, and counts of radioactivity were measured by a gamma counter. The biodistribution of each sample was calculated as a percentage of the injected dose per gram of wet tissue weight (% ID/g). Tibia and femur bones were harvested and counted as bone samples.

[2] = In vitro binding to hydroxyapatite; conditions: 20 mg hydroxyapatite in saline, 10 min at room temperature
Experimental: Hydroxyapatite (20 mg, Sigma-Aldrich, reagent grade powder) was incubated in isotonic saline (1 mL) for 24 h. Subsequently, either ^68Ga labeled 1a-h, 2, 3, BPAMD, or [^18F]NaF (1 μCi) was added to the hydroxyapatite suspension. After vortexing for 10 seconds, the suspension was incubated for 10 min at room temperature. The samples were then centrifuged at 10,000 rpm for 3 min and the supernatant was removed. The hydroxyapatite fraction was washed twice with saline (1 mL). Radioactivity in the combined supernatants and the hydroxyapatite fraction was measured using a gamma counter. The proportion of the ^68Ga complex binding to hydroxyapatite was determined as percent of ^68Ga absorbed to hydroxyapatite.

Compound: O=C([O-])CN(CCN(CC(=O)[O-])Cc1cc(CCC(=O)O)ccc1[O-])Cc1cc(CCC(=O)O)ccc1[O-].[68Ga+3] [[^68Ga]HBED-CC, reference compound]
- bone to blood ratio ([1]; 2 min): 0.2
- bone to muscle ratio ([1]; 2 min): 0.8
- Biodistribution: Blood ([1]; 2 min post injection): 7.66 ± 0.75 % dose/g
- Biodistribution: Bone ([1]; 2 min post injection): 1.85 ± 0.05 % dose/g
- Biodistribution: Brain ([1]; 2 min post injection): 0.29 ± 0.08 % dose/g
- Biodistribution: Heart ([1]; 2 min post injection): 2.74 ± 0.34 % dose/g
- Biodistribution: Kidney ([1]; 2 min post injection): 27.2 ± 0.64 % dose/g
- Biodistribution: Liver ([1]; 2 min post injection): 1.75 ± 0.08 % dose/g
- Biodistribution: Lung ([1]; 2 min post injection): 4.27 ± 0.34 % dose/g
- Biodistribution: Muscle ([1]; 2 min post injection): 2.30 ± 0.13 % dose/g
- Biodistribution: Pancreas ([1]; 2 min post injection): 1.60 ± 0.12 % dose/g
- Biodistribution: Skin ([1]; 2 min post injection): 3.18 ± 0.43 % dose/g
- Biodistribution: Spleen ([1]; 2 min post injection): 1.69 ± 0.18 % dose/g
- bone to blood ratio ([1]; 30 min): 0.3
- bone to muscle ratio ([1]; 30 min): 0.9
- Biodistribution: Blood ([1]; 30 min (0.5 hr) post injection): 0.83 ± 0.09 % dose/g
- Biodistribution: Bone ([1]; 30 min (0.5 hr) post injection): 0.28 ± 0.06 % dose/g
- Biodistribution: Brain ([1]; 30 min (0.5 hr) post injection): 0.04 ± 0.01 % dose/g
- Biodistribution: Heart ([1]; 30 min (0.5 hr) post injection): 0.34 ± 0.06 % dose/g
- Biodistribution: Kidney ([1]; 30 min (0.5 hr) post injection): 3.22 ± 0.41 % dose/g
- Biodistribution: Liver ([1]; 30 min (0.5 hr) post injection): 0.38 ± 0.08 % dose/g
- Biodistribution: Lung ([1]; 30 min (0.5 hr) post injection): 0.58 ± 0.07 % dose/g
- Biodistribution: Muscle ([1]; 30 min (0.5 hr) post injection): 0.32 ± 0.06 % dose/g
- Biodistribution: Pancreas ([1]; 30 min (0.5 hr) post injection): 0.26 ± 0.01 % dose/g
- Biodistribution: Skin ([1]; 30 min (0.5 hr) post injection): 0.64 ± 0.08 % dose/g
- Biodistribution: Spleen ([1]; 30 min (0.5 hr) post injection): 0.26 ± 0.04 % dose/g
- bone to blood ratio ([1]; 60 min): 1.7
- bone to muscle ratio ([1]; 60 min): 2.3
- Biodistribution: Blood ([1]; 60 min (1 hr) post injection): 0.14 ± 0.04 % dose/g
- Biodistribution: Bone ([1]; 60 min (1 hr) post injection): 0.25 ± 0.16 % dose/g
- Biodistribution: Brain ([1]; 60 min (1 hr) post injection): 0.02 ± 0.01 % dose/g
- Biodistribution: Heart ([1]; 60 min (1 hr) post injection): 0.17 ± 0.11 % dose/g
- Biodistribution: Kidney ([1]; 60 min (1 hr) post injection): 0.91 ± 0.32 % dose/g
- Biodistribution: Liver ([1]; 60 min (1 hr) post injection): 0.11 ± 0.02 % dose/g
- Biodistribution: Lung ([1]; 60 min (1 hr) post injection): 0.19 ± 0.04 % dose/g
- Biodistribution: Muscle ([1]; 60 min (1 hr) post injection): 0.11 ± 0.04 % dose/g
- Biodistribution: Pancreas ([1]; 60 min (1 hr) post injection): 0.13 ± 0.05 % dose/g
- Biodistribution: Skin ([1]; 60 min (1 hr) post injection): 0.09 ± 0.07 % dose/g
- Biodistribution: Spleen ([1]; 60 min (1 hr) post injection): 0.12 ± 0.02 % dose/g
- bone to blood ratio ([1]; 120 min): 12
- bone to muscle ratio ([1]; 120 min): 3.3
- Biodistribution: Blood ([1]; 120 min post injection): 0.01 ± 0.00 % dose/g
- Biodistribution: Bone ([1]; 120 min post injection): 0.18 ± 0.06 % dose/g
- Biodistribution: Brain ([1]; 120 min post injection): 0.02 ± 0.00 % dose/g
- Biodistribution: Heart ([1]; 120 min post injection): 0.09 ± 0.00 % dose/g
- Biodistribution: Kidney ([1]; 120 min post injection): 0.08 ± 0.05 % dose/g
- Biodistribution: Liver ([1]; 120 min post injection): 0.04 ± 0.02 % dose/g
- Biodistribution: Lung ([1]; 120 min post injection): 0.07 ± 0.02 % dose/g
- Biodistribution: Muscle ([1]; 120 min post injection): 0.05 ± 0.02 % dose/g
- Biodistribution: Pancreas ([1]; 120 min post injection): 0.07 ± 0.01 % dose/g
- Biodistribution: Skin ([1]; 120 min post injection): 0.03 ± 0.01 % dose/g
- Biodistribution: Spleen ([1]; 120 min post injection): 0.13 ± 0.03 % dose/g
- Hydroxyapatite Binding (%) [2]: 0.4±0.1%

Compound: O=C([O-])CN(CCN(CC(=O)[O-])Cc1cc(CCC(=O)N[C@@H](CC(=O)O)C(=O)O)ccc1[O-])Cc1cc(CCC(=O)NC(P(=O)(O)O)P(=O)(O)O)ccc1[O-].[68Ga+3] [[^68Ga]1e]
- bone to blood ratio ([1]; 2 min): 1
- bone to muscle ratio ([1]; 2 min): 5
- Biodistribution: Blood ([1]; 2 min post injection): 8.31 ± 0.57 % dose/g
- Biodistribution: Bone ([1]; 2 min post injection): 8.82 ± 0.77 % dose/g
- Biodistribution: Brain ([1]; 2 min post injection): 0.20 ± 0.04 % dose/g
- Biodistribution: Heart ([1]; 2 min post injection): 2.55 ± 0.06 % dose/g
- Biodistribution: Kidney ([1]; 2 min post injection): 24.8 ± 3.02 % dose/g
- Biodistribution: Liver ([1]; 2 min post injection): 1.90 ± 0.13 % dose/g
- Biodistribution: Lung ([1]; 2 min post injection): 4.00 ± 0.20 % dose/g
- Biodistribution: Muscle ([1]; 2 min post injection): 1.71 ± 0.19 % dose/g
- Biodistribution: Pancreas ([1]; 2 min post injection): 1.27 ± 0.07 % dose/g
- Biodistribution: Skin ([1]; 2 min post injection): 2.54 ± 0.26 % dose/g
- Biodistribution: Spleen ([1]; 2 min post injection): 1.72 ± 0.19 % dose/g
- bone to blood ratio ([1]; 30 min): 29
- bone to muscle ratio ([1]; 30 min): 67
- Biodistribution: Blood ([1]; 30 min (0.5 hr) post injection): 0.57 ± 0.12 % dose/g
- Biodistribution: Bone ([1]; 30 min (0.5 hr) post injection): 16.5 ± 0.56 % dose/g
- Biodistribution: Brain ([1]; 30 min (0.5 hr) post injection): 0.02 ± 0.01 % dose/g
- Biodistribution: Heart ([1]; 30 min (0.5 hr) post injection): 0.26 ± 0.04 % dose/g
- Biodistribution: Kidney ([1]; 30 min (0.5 hr) post injection): 2.26 ± 0.27 % dose/g
- Biodistribution: Liver ([1]; 30 min (0.5 hr) post injection): 0.27 ± 0.02 % dose/g
- Biodistribution: Lung ([1]; 30 min (0.5 hr) post injection): 0.42 ± 0.08 % dose/g
- Biodistribution: Muscle ([1]; 30 min (0.5 hr) post injection): 0.25 ± 0.03 % dose/g
- Biodistribution: Pancreas ([1]; 30 min (0.5 hr) post injection): 0.17 ± 0.05 % dose/g
- Biodistribution: Skin ([1]; 30 min (0.5 hr) post injection): 0.86 ± 0.22 % dose/g
- Biodistribution: Spleen ([1]; 30 min (0.5 hr) post injection): 0.19 ± 0.02 % dose/g
- bone to blood ratio ([1]; 60 min): 138
- bone to muscle ratio ([1]; 60 min): 258
- Biodistribution: Blood ([1]; 60 min (1 hr) post injection): 0.11 ± 0.02 % dose/g
- Biodistribution: Bone ([1]; 60 min (1 hr) post injection): 14.9 ± 1.45 % dose/g
- Biodistribution: Brain ([1]; 60 min (1 hr) post injection): 0.01 ± 0.00 % dose/g
- Biodistribution: Heart ([1]; 60 min (1 hr) post injection): 0.08 ± 0.00 % dose/g
- Biodistribution: Kidney ([1]; 60 min (1 hr) post injection): 2.12 ± 0.55 % dose/g
- Biodistribution: Liver ([1]; 60 min (1 hr) post injection): 0.14 ± 0.01 % dose/g
- Biodistribution: Lung ([1]; 60 min (1 hr) post injection): 0.15 ± 0.01 % dose/g
- Biodistribution: Muscle ([1]; 60 min (1 hr) post injection): 0.06 ± 0.00 % dose/g
- Biodistribution: Pancreas ([1]; 60 min (1 hr) post injection): 0.06 ± 0.01 % dose/g
- Biodistribution: Skin ([1]; 60 min (1 hr) post injection): 0.12 ± 0.01 % dose/g
- Biodistribution: Spleen ([1]; 60 min (1 hr) post injection): 0.09 ± 0.01 % dose/g
- bone to blood ratio ([1]; 120 min): 230
- bone to muscle ratio ([1]; 120 min): 411
- Biodistribution: Blood ([1]; 120 min post injection): 0.08 ± 0.02 % dose/g
- Biodistribution: Bone ([1]; 120 min post injection): 17.6 ± 2.61 % dose/g
- Biodistribution: Brain ([1]; 120 min post injection): 0.01 ± 0.01 % dose/g
- Biodistribution: Heart ([1]; 120 min post injection): 0.06 ± 0.01 % dose/g
- Biodistribution: Kidney ([1]; 120 min post injection): 1.41 ± 0.28 % dose/g
- Biodistribution: Liver ([1]; 120 min post injection): 0.14 ± 0.02 % dose/g
- Biodistribution: Lung ([1]; 120 min post injection): 0.12 ± 0.02 % dose/g
- Biodistribution: Muscle ([1]; 120 min post injection): 0.04 ± 0.01 % dose/g
- Biodistribution: Pancreas ([1]; 120 min post injection): 0.04 ± 0.01 % dose/g
- Biodistribution: Skin ([1]; 120 min post injection): 0.12 ± 0.03 % dose/g
- Biodistribution: Spleen ([1]; 120 min post injection): 0.06 ± 0.01 % dose/g
- Hydroxyapatite Binding (%) [2]: 95.8 ± 0.9%
